In patent publication US6989383B1, “Method of treating cancer” (Sloan-Kettering Institute For Cancer Research, priority 1998, dated 2006):

Tests used:
[1] = TFA salt
MCF-7 cells [2] = test: Mitotic index by bis-benzimide staining and fluorescence microscopy; assay type: cell-based, human; details: paclitaxel/Compound A treatments, manual counting of 1000 cells per group
Procedure: FIG. 5: Specific Effect of a Farnesyl-protein Transferase Inhibitor in combination with pactitaxel on the cell cycle of MCF-7 Cells: The cells which contained the doubled DNA content from the assay described above for FIGS. 4 and 4A-4L were analyzed to determine which particular cell cycle phase was affected by the addition of Compound A to the paclitaxel treatment. Thus, aliquots of the cell populations for the various paclitaxel/Compound A treatments were. fixed in 3% paraformaldehyde for 10 minutes, washed in PBS and stained in 24 μg/ml bis-benzimide in PBS. Mitotic cells were distinguished from interphase cells under fluorescence microscopy by characteristic chromatin condensation and mitotic indices were obtained by manual counting of 1000 cells in each experimental treatment group.

MCF-7 cells [3] = test: In vitro cell cycle assay (DNA content by flow cytometry); assay type: cell-based, human; details: 24 hour treatment with various concentrations of paclitaxel in presence or absence of 1 μM Compound A
Procedure: FIGS. 4 and 4A-4L: Effect of a Farnesyl-protein Transferase Inhibitor in combination with paclitaxel on the cell cycle of MCF-7 Cells: MCF-7 cells were preincubated for one day, followed by a 24 hour treatment with various concentrations of paclitaxel in the presence or absence of 1 μM Compound A. The DNA contents of the cells were then assessed according to the protocol described in “In vitro cell cycle assay.” The cell population having various DNA quantities was then determined and analyzed graphically. […] FIGS. 4A-4L show the individual histograms in greater detail. FIGS. 4A-4F show the histograms of the treatment in the absence of Compound A and with increasing concentrations of paclitaxel (the left column of FIG. 4). FIGS. 4G-4L show the histograms of the treatment in the presence of 1 μM of Compound A and with increasing concentrations of paclitaxel (the right column of FIG. 4).
Cancer cells (MCF-7, MDA468 or DU-145) are seeded in a 10 cm dish at 1,000,000 cells per dish. After one day in growth media, the cells are exposed to various concentrations of a antineoplastic agent along with vehicle (PBS) or 1 μM FTI in the vehicle. After 24 hours of exposure to the combination or antineoplastic agent, the cells are trypsinized and stained with ethidium bromide. The stained nucleii are analyzed by flow cytometry for evaluation of the DNA content.

Row | SMILES | stability in solution exposed to air [1] | cell cycle phase affected by addition of Compound A to paclitaxel treatment (mitotic indices) (MCF-7 cells [2]) | effect on paclitaxel-induced G2/M phase arrest (MCF-7 cells [3])
1 | CC[C@H](C)[C@@H](CO[C@@H](Cc1ccccc1)C(=O)NC1CCOC1=O)NC[C@@H](N)CS (stereo partly drawn) [Compound 5-1, 2(S)-[2(S)-[2(R)-Amino-3-mercapto]-propylamino-3(S)-methyl]pentyloxy-3-phenylpropionyl-homoserine lactone] | prone to disulphide formation if left in solution and exposed to air | – | –
2 | CCC(C)[C@@H](CO[C@@H](Cc1ccccc1)C(=O)N[C@@H](CCS(C)(=O)=O)C(=O)OC(C)C)NC[C@@H](N)CS (stereo partly drawn) [Compound A, 2(S)-[2(S)-[2(R)-Amino-3-mercapto]-propylamino-3(S)-methyl)-pentyloxy-3-phenylpropionyl-methionine sulfone isopropyl ester] | – | enhancement in blockage at the G2/M phase of the cell cycle is largely due to an effect on the M-phase | increases the molar potency with which paclitaxel causes G2/M phase arrest
